Converted amounts (≈) assume the structure as drawn.
What was measured:
Rattus norvegicus = conditions: for LD50: acute, mortality
Anas platyrhynchos = conditions: for LD50: oral, mortality; for NOEL: reproductive
Tagia sp. = conditions: acute; duration: 14 days; mortality
Apis mellifera = conditions: acute; duration: 48 hours; oral; unspecified; mortality
Typhlodromus pyri = assay: LR50; higher = less toxic; conditions: not reported; mortality
Aphidius rhopalosiphi = assay: LR50; higher = less toxic; conditions: not reported; mortality

Structure (SMILES) | LD50 (Rattus norvegicus; oral) [mg/kg-day] | NOEL (Rattus norvegicus; reproduction developmental, M, reproduction) [mg/kg-day] | LD50 (Anas platyrhynchos; short-term, feed) [mg/kg-day] | LC50 (Oncorhynchus mykiss; acute, duration: 96 hours, mortality) [mg/L] | NOEC (Oncorhynchus mykiss; chronic/long-term, duration: 28 days, growth) [mg/L] | LC50 (Tagia sp.) [mg/kg] | LD50 (Rattus norvegicus) [mg/kg-day] | NOEL (Rattus norvegicus; chronic) [mg/kg-day] | LOAEL (Rattus norvegicus; chronic, duration: 2 years, organ weight) [mg/kg-day] | NOAEL (Rattus norvegicus; reproduction developmental, organ weight) [mg/kg-day] | LD50 (Apis mellifera) [µg/piece] | LD50 (Anas platyrhynchos; acute, unspecified) [mg/kg-day] | NOEL (Anas platyrhynchos; duration: 6 weeks) [mg/kg-day] | NOEL (Anas platyrhynchos; duration: 20 weeks, body weight) [mg/kg-day] | LR50 (Typhlodromus pyri) [g/ha] | LR50 (Aphidius rhopalosiphi) [g/ha]
CS(=O)(=O)c1ccc(C(=O)O)c(Cl)c1 [Benzoic acid, 2-chloro-4-(methylsulfonyl)-] | > 2000 | 969 | > 2010 |  |  |  |  |  |  |  |  |  |  |  |  | 
CS(=O)(=O)c1ccc(C(=O)C2C(=O)CCCC2=O)c(Cl)c1 [Sulcotrione] |  |  | > 1260 | 227 (≈ 690 µM) | 3.2 | > 1000 | > 5000 | 0.5 | 0.04 | 0.06 | 50 | > 1350 | 17 | < 10.9 | > 450 | > 450

Reference: EPA's ToxValDB 9.5 (doi:10.2903/j.efsa.2008.150r)
